Here are results for two molecules from ChEMBL document CHEMBL2396612 (Bioorg Med Chem Lett, 2013).

What is called IC50 is the concentration that gives 50% inhibition. A high value points to weaker potency.

Assay [1] has as its target T1, Sterol O-acyltransferase 2 (Homo sapiens, UniProt O75908).
T1 sequence (O75908 whole entry): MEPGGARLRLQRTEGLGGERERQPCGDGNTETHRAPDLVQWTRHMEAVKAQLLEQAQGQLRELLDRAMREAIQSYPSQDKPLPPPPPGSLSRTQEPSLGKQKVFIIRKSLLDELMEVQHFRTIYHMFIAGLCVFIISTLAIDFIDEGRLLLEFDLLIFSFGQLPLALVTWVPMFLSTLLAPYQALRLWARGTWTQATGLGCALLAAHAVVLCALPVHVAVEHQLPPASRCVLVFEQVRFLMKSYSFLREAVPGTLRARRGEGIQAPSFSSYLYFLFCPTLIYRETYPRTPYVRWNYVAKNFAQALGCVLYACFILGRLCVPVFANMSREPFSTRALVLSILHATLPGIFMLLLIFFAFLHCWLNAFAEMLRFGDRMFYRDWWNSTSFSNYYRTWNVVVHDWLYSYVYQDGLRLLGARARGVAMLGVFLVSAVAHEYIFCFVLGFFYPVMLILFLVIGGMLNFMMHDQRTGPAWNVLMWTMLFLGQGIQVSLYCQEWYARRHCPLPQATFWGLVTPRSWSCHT
The assay can be described thus: Inhibition of ACAT2 (unknown origin).

For assay [2], the target named is T2, Sterol O-acyltransferase 1 (Homo sapiens, UniProt P35610).
T2 sequence (P35610 whole entry): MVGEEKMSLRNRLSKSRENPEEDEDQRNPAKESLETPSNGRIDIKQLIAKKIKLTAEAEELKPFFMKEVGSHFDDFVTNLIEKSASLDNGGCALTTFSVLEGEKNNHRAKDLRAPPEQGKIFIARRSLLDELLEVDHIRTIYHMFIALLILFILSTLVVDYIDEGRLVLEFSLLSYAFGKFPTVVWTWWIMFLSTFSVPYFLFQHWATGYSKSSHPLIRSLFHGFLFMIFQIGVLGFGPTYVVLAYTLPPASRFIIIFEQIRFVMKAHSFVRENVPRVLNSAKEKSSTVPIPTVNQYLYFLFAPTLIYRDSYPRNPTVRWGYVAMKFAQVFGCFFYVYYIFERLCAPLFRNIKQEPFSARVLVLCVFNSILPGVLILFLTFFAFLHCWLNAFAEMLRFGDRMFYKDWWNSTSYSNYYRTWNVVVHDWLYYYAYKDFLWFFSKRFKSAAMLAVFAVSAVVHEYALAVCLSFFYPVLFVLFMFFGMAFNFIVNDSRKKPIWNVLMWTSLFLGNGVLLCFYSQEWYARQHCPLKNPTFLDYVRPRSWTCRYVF
The assay can be described thus: Inhibition of ACAT1 (unknown origin).

The species entered for another assay is Homo sapiens. In words: Selectivity index, ratio of IC50 for ACAT1 (unknown origin) to IC50 for ACAT2 (unknown origin).

Bounds are passed on as bounds.

For the molecule `Cc1cccc(C)c1[C@@H]1OC[C@@]2(C)[C@@H]3C[C@H](OC(=O)c4ccc(C#N)cc4)[C@@]4(C)Oc5cc(-c6cccnc6)oc(=O)c5[C@H](O)[C@@H]4[C@@]3(C)CC[C@@H]2O1`, the figures for the IC50 in assay [1] and in assay [2] were 7.2 nM and over 71200 nM, respectively. For the same molecule, the Ratio IC50 in the assay filed under Homo sapiens was over 9920.
With `COc1ccccc1[C@@H]1OC[C@@]2(C)[C@@H]3C[C@H](OC(=O)c4ccc(C#N)cc4)[C@@]4(C)Oc5cc(-c6cccnc6)oc(=O)c5[C@H](O)[C@@H]4[C@@]3(C)CC[C@@H]2O1`, the results for the IC50 in assay [1] and in assay [2] were 36.8 nM and over 71000 nM, respectively. Besides, the Ratio IC50 in the assay filed under Homo sapiens was over 1930.
